Values after ≈ are worked out from the molar mass of the structure shown. Where two headings read alike, the source gives them in different places.
Assays:
[1] = Cytotoxicity (CC50), MTS-based assay (Experimental Example 2); type: cell-based
Experimental: (§1) The test compounds were evaluated for anti-picornavirus activity by a multicycle cytopathic effect (CPE) reduction assay. The antiviral activity was initially determined using an MTS [3-(4,5-dimethylthiazol-2-yl)-5-(3-carboxymethoxyphenyl)-2-(4-sulfophenyl-2H-tetrazolium]-based CPE reduction assay.
(§2) In this regard, cells grown to confluence in 96-well plates were infected with 100 50% cell culture infective doses (CCID50) of virus. After an adsorption period of 2 hrs at 37° C., virus was removed and serial dilutions of the compounds were added. […] After removal of the medium, 90 μl of a culture medium and 10 μl of MTS-phenazine methosulfate (Promega, Leiden, The Netherlands) were added to each well. After an incubation period of 2 hrs at 37° C., the optical density (OD) of each well was read at 498 nm in a microplate reader.
CPE values for evaluating cytotoxicity were calculated using the following Mathematic Formula 4: […]
(§3) The 50% effective concentration (EC50) and the 50% cytotoxic concentration (CC50) were defined as the concentrations of compound that offered 50% protection against virus-induced CPE and that killed cells by 50%, respectively, and were calculated using logarithmic interpolation.

Coxsackie A16 = experiment: Multicycle CPE reduction assay, Coxsackie A16; type: cell-based; details: MRC5; incubation at 37° C. in MRC-5 cells
Experimental: as §1, §2
(§4) CPE values for evaluating antiviral activity were calculated using the following Mathematic Formula 3: […]
as §3

Coxsackie A21 = experiment: Multicycle CPE reduction assay, Coxsackie A21; type: cell-based; details: MRC5; incubation at 37° C. in MRC-5 cells
Experimental: as §1, §2, §4, §3

Entero 71 = experiment: Multicycle CPE reduction assay, Entero 71; type: cell-based; details: incubation at 37° C. in RD cells
Experimental: as §1, §2, §4, §3

Echo 9 = experiment: Multicycle CPE reduction assay, Echo 9; type: cell-based
Experimental: as §1, §2, §4, §3

Echo 11 = experiment: Multicycle CPE reduction assay, Echo 11; type: cell-based; details: BGM, read-out: Echo 11 EC50
Experimental: as §1, §2, §4, §3

Polio 1 = experiment: organism not typed; type: cell-based; details: BGM, read-out: Polio 1 EC50
Polio 2 = experiment: organism not typed; type: cell-based; details: BGM, read-out: Polio 2 EC50
Polio 3 = experiment: organism not typed; type: cell-based; details: BGM, read-out: Polio 3 EC50
Rhino 2 = experiment: Multicycle CPE reduction assay, Rhino 2; type: cell-based; details: incubation at 37° C. in HeLa cells
Experimental: as §1, §2, §4, §3

Rhino 9 = experiment: Multicycle CPE reduction assay, Rhino 9; type: cell-based; details: incubation at 37° C. in HeLa cells
Experimental: as §1, §2, §4, §3

Rhino 15 = experiment: Multicycle CPE reduction assay, Rhino 15; type: cell-based; details: incubation at 37° C. in HeLa cells
Experimental: as §1, §2, §4, §3

Rhino 29 = experiment: Multicycle CPE reduction assay, Rhino 29; type: cell-based; details: incubation at 37° C. in HeLa cells
Experimental: as §1, §2, §4, §3

Rhino 39 = experiment: Multicycle CPE reduction assay, Rhino 39; type: cell-based; details: incubation at 37° C. in HeLa cells
Experimental: as §1, §2, §4, §3

Rhino 41 = experiment: Multicycle CPE reduction assay, Rhino 41; type: cell-based; details: incubation at 37° C. in HeLa cells
Experimental: as §1, §2, §4, §3

Rhino 45 = experiment: Multicycle CPE reduction assay, Rhino 45; type: cell-based; details: incubation at 37° C. in HeLa cells
Experimental: as §1, §2, §4, §3

Rhino 63 = experiment: Multicycle CPE reduction assay, Rhino 63; type: cell-based; details: incubation at 37° C. in HeLa cells
Experimental: as §1, §2, §4, §3

Rhino 85 = experiment: Multicycle CPE reduction assay, Rhino 85; type: cell-based; details: incubation at 37° C. in HeLa cells
Experimental: as §1, §2, §4, §3

Rhino 89 = experiment: Multicycle CPE reduction assay, Rhino 89; type: cell-based; details: HeLa, read-out: Rhino 89 EC50
Experimental: as §1, §2, §4, §3

Rhino 42 = experiment: Multicycle CPE reduction assay, Rhino 42; type: cell-based; details: incubation at 37° C. in HeLa cells
Experimental: as §1, §2, §4, §3

Rhino 70 = experiment: Multicycle CPE reduction assay, Rhino 70; type: cell-based
Experimental: as §1, §2, §4, §3

Rhino 72 = experiment: Multicycle CPE reduction assay, Rhino 72; type: cell-based; details: incubation at 37° C. in HeLa cells
Experimental: as §1, §2, §4, §3

Rhino 86 = experiment: Multicycle CPE reduction assay, Rhino 86; type: cell-based; details: incubation at 37° C. in HeLa cells
Experimental: as §1, §2, §4, §3

in vitro = details: human
Poliovirus 3 = experiment: microbe, parasite or virus in culture; type: cell-based; details: Enterovirus C, read-out: Poliovirus3 EC50
Coxsackie A9 = experiment: Multicycle CPE reduction assay, Coxsackie A9; type: cell-based; details: incubation at 37° C. in BGM cells
Experimental: as §1, §2, §4, §3

Rhino 14 = experiment: Multicycle CPE reduction assay, Rhino 14; type: cell-based; details: incubation at 37° C. in HeLa cells
Experimental: as §1, §2, §4, §3

Rhino 59 = experiment: Multicycle CPE reduction assay, Rhino 59; type: cell-based; details: incubation at 37° C. in HeLa cells
Experimental: as §1, §2, §4, §3

[2] = HeLa, read-out: Rhino 70 EC50, incubation at 37° C. in HeLa cells

Structure (SMILES)	CC50 at 3 days [1] [nM]	EC50 (Entero 71) [nM]	EC50 (Echo 11) [nM]	EC50 (Polio 1) [nM]	EC50 (Polio 2) [nM]	EC50 (Polio 3) [nM]	EC50 (Rhino 2) [nM]	EC50 (Rhino 9) [nM]	EC50 (Rhino 15) [nM]	EC50 (Rhino 29) [nM]	EC50 (Rhino 39) [nM]	EC50 (Rhino 41) [nM]	EC50 (Rhino 45; HeLa) [nM]	EC50 (Rhino 63) [nM]	EC50 (Rhino 85) [nM]	EC50 (Rhino 89) [nM]	EC50 (Rhino 42) [nM]	EC50 (Rhino 70; [2]) [nM]	EC50 (Rhino 72) [nM]	CC50 (in vitro; Picorana CC50) [µg/mL]	also measured
CC(C)c1ccc2c(c1)OC1(O)c3ccccc3C(=O)C21O (stereo not drawn) [Example 10, 4b,9b-Dihydroxy-7-isopropyl-4bH-benzo[d]indeno[1,2-b]furan-10(9bH)-one]	> 100000	12 ± 2	21	750 ± 370	360 ± 150	1000 ± 570	> 50000	> 50000	> 50000	> 50000	> 50000	8800 ± 120	3400 ± 1500	> 50000	> 50000	> 50000	> 50000	2400 ± 360	5300 ± 1200	14.2 (≈ 47.9 µM)	EC50 (Coxsackie A16): 90 ± 35 nM; EC50 (Coxsackie A21): 1100 ± 580 nM; EC50 (Echo 9; MRC5, incubation at 37° C. in MRC-5 cells, read-out: Echo 9 EC50): 25 ± 5.7 nM; EC50 (Rhino 86): 8000 ± 2900 nM; melting point: 195 to 198 °C; CC50 (in vitro): 18.4 µg/mL (≈ 62.2 µM)
CC(C)c1ccc2c(c1)O[C@@]1(O)c3cccc(N)c3C(=O)[C@@]21O [Example 46, 1-Amino-4b,9b-dihydroxy-7-isopropyl-4bH-benzo[d]indeno[1,2-b]furan-10(9bH)-one]	> 100000	3.1	2.3 ± 0.88	68	18 ± 1.9	43 ± 17	> 10000	3500 ± 150	2800 ± 260	4600 ± 720	3000 ± 170	470 ± 36	≤ 78	8500 ± 130	6200 ± 700	340 ± 860	–	–	–	9.42 (≈ 30.3 µM)	EC50 (Poliovirus 3): < 0.01 µg/mL; EC50 (Coxsackie A9): 1.7 nM; EC50 (Echo 9; MRC5, read-out: Echo 9 EC50): 3.5 nM; EC50 (Rhino 45; listed as Ex. 46): < 78 nM; EC50 (Rhino 14): < 10 nM; EC50 (Rhino 70; HeLa, incubation at 37° C. in HeLa cells, read-out: Rhino 70 EC50): ≤ 78 nM; EC50 (Rhino 70; read-out: Rhino 70 EC50, incubation at 37° C. in HeLa cells, listed as Ex. 46): > 78 nM; melting point: 180 to 182 °C; CC50 (in vitro): 18.3 µg/mL (≈ 58.9 µM)
CC(=O)NC12C(=O)c3ccccc3C1(O)Oc1cc(C(C)C)ccc12 (stereo not drawn) [Example 66, N-(4b-Hydroxy-7-isopropyl-10-oxo-4b,10-dihydro-5-oxa-indeno[2,1-a]inden-9b-yl)-acetamide]	> 100000	25 ± 0.92	7.2 ± 0.18	690 ± 170	230 ± 20	580 ± 6.9	5900 ± 250	2300 ± 700	4600 ± 1300	6400 ± 830	1800 ± 370	600 ± 26	1700 ± 460	> 10000	> 5800	630 ± 23	150 ± 23	57 ± 17	130 ± 69	44.7 (≈ 133 µM)	EC50 (Coxsackie A9): 8.3 ± 0.43 nM; EC50 (Rhino 59): > 10000 nM; EC50 (Rhino 86): 70 ± 6.6 nM
